This is an account of results in article PMC6100008, “Fingerprint-Based Machine Learning Approach to Identify Potent and Selective 5-HT2BR Ligands” (Molecules : A Journal of Synthetic Chemistry and Natural …, 2018).

One assay deals with T1, human 5-HT1B receptor (Homo sapiens, UniProt P28222).
T1 construct: expressed in transfected cells; host or cells: HeLa (Hela-5-HT1B cell line, Lot A001/14-11-2011)
As to the kind of experiment: Competition binding in human 5-HT1B receptor ([3H]-GR125743, Hela-5-HT1B membranes). The following applies: for inhibition at 10 µM: 10 µM compound, mean ± SD of three independent assays with duplicate measurements, read-out: 5-HT1B (%) percentage of inhibition; for Ki: measured if inhibition at 10 µM exceeded 50%, mean ± SD of three assays.

For the next assay, the target named is human 5-HT2B receptor (Homo sapiens, UniProt P41595). As to the kind of experiment: Competition binding in human 5-HT2B receptor ([3H]-LSD, CHO-5-HT2B membranes). The following applies: for inhibition at 10 µM: read-out: 5-HT2B (%) percentage of inhibition; for 5-HT2BR affinity range in words: conclusions.
human 5-HT2B receptor, sequence (P41595 whole entry): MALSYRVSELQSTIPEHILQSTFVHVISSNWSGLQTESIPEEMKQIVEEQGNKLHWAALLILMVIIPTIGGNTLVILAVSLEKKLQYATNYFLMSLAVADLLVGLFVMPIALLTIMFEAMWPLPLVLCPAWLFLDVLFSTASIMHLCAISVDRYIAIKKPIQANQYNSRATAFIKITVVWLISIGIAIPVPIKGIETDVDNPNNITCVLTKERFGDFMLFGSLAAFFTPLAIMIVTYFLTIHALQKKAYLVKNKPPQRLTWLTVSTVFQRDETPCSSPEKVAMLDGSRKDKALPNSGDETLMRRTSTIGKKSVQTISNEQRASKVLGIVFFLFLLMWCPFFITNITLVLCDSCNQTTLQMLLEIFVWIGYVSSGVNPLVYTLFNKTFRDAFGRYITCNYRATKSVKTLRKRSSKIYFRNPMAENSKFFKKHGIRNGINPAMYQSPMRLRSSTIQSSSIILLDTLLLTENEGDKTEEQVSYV
Assay [1] deals with 5-HT2B. Also noted: method as in earlier work. The following applies: Figure 1; ref 21 (1), ChEMBL (2, 3), ref 24 (5), ref 26 (7); cited from earlier work.
The next assay deals with T2, human serotonin 5-HT1AR (Homo sapiens, UniProt P08908).
T2 construct: expressed in transfected cells
T2 sequence (P08908 1-422): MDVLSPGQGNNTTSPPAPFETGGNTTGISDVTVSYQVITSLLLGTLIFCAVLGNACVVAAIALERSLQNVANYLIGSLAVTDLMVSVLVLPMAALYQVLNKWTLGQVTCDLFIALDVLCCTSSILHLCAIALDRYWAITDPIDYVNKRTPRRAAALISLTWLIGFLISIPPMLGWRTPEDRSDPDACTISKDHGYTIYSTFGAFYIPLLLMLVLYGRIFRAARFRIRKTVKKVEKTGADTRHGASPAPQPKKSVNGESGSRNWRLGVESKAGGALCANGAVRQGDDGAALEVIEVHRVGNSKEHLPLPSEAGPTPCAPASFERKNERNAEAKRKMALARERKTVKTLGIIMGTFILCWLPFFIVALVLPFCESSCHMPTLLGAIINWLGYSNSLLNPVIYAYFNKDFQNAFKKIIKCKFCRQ
As to the kind of experiment: Competition binding in human 5-HT1A receptor ([3H]-8-OH-DPAT, HEK293 membranes). The following applies: 5-HT panel screening; mean ± SD.

Assay [2] addresses T3, human serotonin 5-HT2A receptor (Homo sapiens, UniProt P28223).
T3 construct: expressed in transfected cells
As to the kind of experiment: Competition binding in human 5-HT2A receptor ([3H]-Ketanserin, HEK293 membranes). The following applies: 5-HT panel screening; mean ± SD.

In assay [3] the target is T4, human serotonin 5-HT6 receptor (Homo sapiens, UniProt P50406).
T4 construct: expressed in transfected cells
T4 sequence (P50406 whole entry): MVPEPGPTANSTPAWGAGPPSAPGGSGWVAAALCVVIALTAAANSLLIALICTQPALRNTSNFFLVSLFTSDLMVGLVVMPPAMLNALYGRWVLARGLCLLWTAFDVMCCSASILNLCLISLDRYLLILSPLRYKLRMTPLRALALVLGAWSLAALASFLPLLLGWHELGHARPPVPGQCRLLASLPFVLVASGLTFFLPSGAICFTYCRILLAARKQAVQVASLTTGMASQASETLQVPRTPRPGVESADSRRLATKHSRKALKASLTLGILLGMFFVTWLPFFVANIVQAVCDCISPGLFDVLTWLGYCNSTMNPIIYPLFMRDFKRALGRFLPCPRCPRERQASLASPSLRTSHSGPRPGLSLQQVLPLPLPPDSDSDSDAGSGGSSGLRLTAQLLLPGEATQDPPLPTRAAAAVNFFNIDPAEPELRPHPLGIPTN
As to the kind of experiment: Competition binding in human 5-HT6 receptor ([3H]-LSD, HEK293 membranes). The following applies: 5-HT panel screening; mean ± SD.

Assay [4] concerns the target T5, human serotonin 5-HT7b receptor (Homo sapiens, UniProt P34969).
T5 construct: expressed in transfected cells
As to the kind of experiment: Competition binding in human 5-HT7 receptor ([3H]-5-CT, HEK293 membranes). To be noted: 5-HT panel screening; mean ± SD.

The next assay concerns the target 5-HT1B. The following applies: Figure 1; ref 21 (compound 1), ChEMBL (compounds 2, 3); cited from earlier work.
Assay [5] has as its system 5-HT2B. Also noted: method as in PMID 8709108. The following applies: Figure 1; cited from earlier work.
Assay [6] deals with 5-HT2B. The following applies: cited from earlier work.

Each structure is given as a SMILES string. Read-outs that look alike come from different tables or passages of the source.

T1 sequence (P28222 whole entry): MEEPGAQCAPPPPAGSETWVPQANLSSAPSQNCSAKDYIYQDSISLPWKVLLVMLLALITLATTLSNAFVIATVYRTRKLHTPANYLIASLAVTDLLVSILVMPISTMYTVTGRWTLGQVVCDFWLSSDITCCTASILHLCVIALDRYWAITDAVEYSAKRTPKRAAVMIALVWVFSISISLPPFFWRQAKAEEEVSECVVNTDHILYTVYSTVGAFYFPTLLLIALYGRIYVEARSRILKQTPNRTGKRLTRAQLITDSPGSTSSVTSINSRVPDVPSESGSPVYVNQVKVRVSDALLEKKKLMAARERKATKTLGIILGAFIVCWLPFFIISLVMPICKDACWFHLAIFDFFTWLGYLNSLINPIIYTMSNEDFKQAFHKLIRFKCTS
T3 sequence (P28223 whole entry): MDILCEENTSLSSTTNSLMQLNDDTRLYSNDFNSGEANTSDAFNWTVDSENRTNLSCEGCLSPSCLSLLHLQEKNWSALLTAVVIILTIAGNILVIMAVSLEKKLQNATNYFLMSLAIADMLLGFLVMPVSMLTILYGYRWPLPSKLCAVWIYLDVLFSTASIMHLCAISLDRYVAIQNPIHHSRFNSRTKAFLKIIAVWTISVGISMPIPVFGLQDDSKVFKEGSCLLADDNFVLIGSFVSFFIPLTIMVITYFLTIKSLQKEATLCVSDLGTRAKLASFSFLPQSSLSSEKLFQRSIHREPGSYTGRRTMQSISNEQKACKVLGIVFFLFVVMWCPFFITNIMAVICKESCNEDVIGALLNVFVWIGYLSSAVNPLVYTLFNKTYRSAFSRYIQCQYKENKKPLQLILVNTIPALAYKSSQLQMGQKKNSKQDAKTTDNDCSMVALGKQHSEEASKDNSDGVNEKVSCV
T5 sequence (P34969 1-432): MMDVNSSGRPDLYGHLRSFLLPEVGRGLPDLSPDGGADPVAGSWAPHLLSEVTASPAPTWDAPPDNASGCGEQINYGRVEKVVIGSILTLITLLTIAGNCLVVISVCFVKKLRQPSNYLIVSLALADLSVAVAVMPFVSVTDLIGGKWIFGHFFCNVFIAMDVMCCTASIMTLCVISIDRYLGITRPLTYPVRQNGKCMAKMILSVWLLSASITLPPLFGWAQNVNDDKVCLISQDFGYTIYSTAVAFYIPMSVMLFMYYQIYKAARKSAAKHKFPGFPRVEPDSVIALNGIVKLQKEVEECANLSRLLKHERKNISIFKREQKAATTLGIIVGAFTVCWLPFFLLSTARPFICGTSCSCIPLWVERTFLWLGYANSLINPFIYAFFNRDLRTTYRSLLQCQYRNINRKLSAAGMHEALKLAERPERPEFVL

As for `CCc1ccc(NC(=O)c2ccc(-c3noc(C4CCN(C(=O)c5ccc(F)cc5)CC4)n3)cc2)cc1` [Compound 16], the inhibition at 10 µM on human 5-HT1B receptor was found to be 1 ± 1%; at human 5-HT2B receptor it was 24 ± 4%.

Turning to `CCOC(=O)c1c(CN2CCCCC2)n(C)c2c1cc(OC(C)=O)c1c2c(-c2ccccc2)nn1-c1ccccc1` [Compound 14], the inhibition at 10 µM was found to be 26 ± 4% on human 5-HT1B receptor and 34 ± 4% on human 5-HT2B receptor.

`Cc1cc([N+](=O)[O-])c(N2CCN(Cc3ccccc3)CC2)cc1N` [Compound 5, EGIS-7625]: the “pKi (5-HT2B)” value on 5-HT2B [1] is 9.0.

Take `Cc1c(C(=O)N2CCC(c3ncc[nH]3)CC2)n[nH]c1-c1ccc(Cl)cc1` [Compound 8]: the Ki is 2930 ± 321 nM on human 5-HT1B receptor; greater than 20000 nM on human serotonin 5-HT1AR; greater than 20000 nM in assay [2]; 13200 ± 1500 nM in [3]; greater than 20000 nM in assay [4]; 0.3 ± 0.07 nM at human 5-HT2B receptor. Besides, the “5-HT2BR affinity range in words” value at human 5-HT2B receptor is “subnanomolar”. For the same compound, the “selectivity for 5-HT2BR versus 5-HT1BR” value on human 5-HT2B receptor (ratio of 5-HT1BR and 5-HT2BR affinity) was “ten thousand-fold”.

Take `Cc1ncc(C(=O)N2CCC(c3nccn3Cc3ccccc3)CC2)c(=O)[nH]1` [Compound 13]: the results for the inhibition at 10 µM at human 5-HT1B receptor and at human 5-HT2B receptor were 19 ± 3% and 34 ± 4%, respectively.

Take `COc1cccc(-c2n[nH]cc2C(=O)N2CCCC(c3cc(O)ncn3)C2)c1` (centres unmarked) [Compound 12]: the inhibition at 10 µM on human 5-HT1B receptor worked out at 7 ± 1%; on human 5-HT2B receptor, 36 ± 4%.

Turning to `CCCCN1CCC(COC(=O)c2cc(F)c(N)c3c2OCCO3)CC1` [Compound 3], on 5-HT1B, the “pKi (5-HT1B)” value is greater than 5. The “pKi (5-HT2B)” value on 5-HT2B [1] is on record as 6.78.

With `Cc1c(-c2ccccc2)sc(NC(=O)Cn2c(=O)cnc3ccccc32)c1C(=O)N1CCCCC1` [Compound 9], the Ki is 2100 ± 622 nM at human 5-HT1B receptor; greater than 20000 nM at human serotonin 5-HT1AR; greater than 20000 nM in [2]; 7500 ± 900 nM in [3]; greater than 20000 nM in assay [4]; 235 ± 15.9 nM on human 5-HT2B receptor. In addition, the “5-HT2BR affinity range in words” value at human 5-HT2B receptor was “submicromolar”.

Take `COc1ccc(CC2NCCc3c2[nH]c2ccccc32)cc1OC` (centres unmarked) [Compound 6, LY-23728]: the “pKB (5-HT2B)” value with 5-HT2B [5] was 9.17.

On to `CCOC(=O)c1cccc(NC2=NC(N)=NC3(CCCCC3)N2)c1` [Compound 1], for which the “pKi (5-HT1B)” value on 5-HT1B is listed as greater than 5. Besides, the “pKi (5-HT2B)” value on 5-HT2B [1] is given as 8.14.

Take `COc1ccc(NC(=O)c2ccc(-c3ccncc3)c(C)c2)cc1N1CCN(C)CC1` [[^3H]-GR125743, reference compound]: the Kd on human 5-HT1B receptor (radioligand used at […], read-out: KD of radioligand at 5-HT1BR) worked out at 0.74 nM.

As for `COc1ccc2c(c1)NC1(CCN(C(=O)c3ccc(C)c(C)c3)CC1)c1cccn1-2` [Compound 15], the inhibition at 10 µM was determined as 28 ± 3% at human 5-HT1B receptor and 31 ± 4% on human 5-HT2B receptor.

On to `CC(C)c1cc(-c2ccc(F)c3ccccc23)nc(N)n1` [Compound 4, RS-127445], for which the IC50 in the assay on 5-HT2B [6] (Figure 1, read-out: IC50 (5-HT2B)) was 0.7 nM.

For the compound `Cc1cccc2[nH]c(C3CCN(C(=O)c4cnn[nH]4)CC3)nc12` [Compound 11], the inhibition at 10 µM at human 5-HT1B receptor amounted to 12 ± 4%; on human 5-HT2B receptor, 40 ± 3%.

Consider `O=C(c1ccc(-c2ccccc2)cc1)N1CCC(c2nc3ccccc3[nH]2)CC1` [Compound 17], for which, in the assay with 5-HT2B [6] (Figure 6, closest literature analogue, read-out: IC50 (5-HT2BR)), the IC50 was 2.4 nM.

Turning to `Cn1c(CN2CCCCC2)nnc1C1CCCN(CCc2ccccc2)C1` (centres unmarked) [Compound 10], on human 5-HT1B receptor, the inhibition at 10 µM worked out at 7 ± 4%. Besides, at human 5-HT2B receptor, the Ki stood at 2610 ± 422 nM and the “5-HT2BR affinity range in words” value is listed as “low micromolar”.

Turning to `Cn1ccc2cc(NC(=O)Nc3cccnc3)ccc21` [Compound 7, SB-200646A], the “pKi (5-HT2B)” value at 5-HT2B [1] was 7.5.

For `COc1cc(N)c(Cl)cc1C(=O)NC1CCN(CCCOc2ccc(F)cc2)CC1OC` (centres unmarked) [Compound 2], the “pKi (5-HT1B)” value at 5-HT1B is greater than 5.3.

What is called inhibition is the relative decrease from the control value, in per cent. The Ki is the equilibrium dissociation constant of an inhibitor or competing ligand from its target. Higher therefore signals lower affinity. What is called Kd is the free concentration of one partner at which half of the binding sites on the other are occupied at equilibrium, for simple one-to-one binding. Usually IC50 stands for the concentration that inhibits the measured activity by half.
